pEC50: −log10 of the molar value.
Target: T1, γ-secretase (Homo sapiens, UniProt P49768)
T1 construct: Human neuroglioma H4 cells overexpressing human APP695; endogenous in cells; host or cells: human neuroglioma H4 cells stably overexpressing human APP695 Swedish
Test: Cellular γ-secretase assay (inhibition of Aβ42 secretion, AlphaLisa)
Assay type: cell-based
Details: Human neuroglioma H4 cells overexpressing human APP695 Swedish double mutation; 24 hr compound incubation; secreted Aβ42 in supernatant
Protocol: Description of γ-Secretase Assay
Cellular γ-Secretase Assay
Human neuroglioma H4 cells overexpressing human APP695 with the Swedish double mutation (K595N/M596L) were plated at 30,000 cells/well/100 al in 96-well plates in IMDM media containing 10% FCS, […] Hygromycin B and incubated at 37° C., 5% CO2.
3-4 hr post plating, compounds are a diluted in media and 50 μl is added as 1.5-fold concentrate to achieve the final concentration. Compound incubation is performed for 24 hr. Final doses typically range from 4 μM down to 0.0013 μM in half-log steps resulting in a eight point dose response curve.
Appropriate controls using vehicle only and reference compound were applied to this assay. The final concentration of Me2SO was 0.4%.
After incubation at 37° C., 5% CO2, the supernatant was subjected to quantification of secreted Aβ42 by the means of an AlphaLisa assay kit (Human Amyloid beta 1-42 Kit: Cat #AL203C, Perkin Elmer). 20 μl of the cell culture supernatant was transferred to an assay plate. Then 10 μl of a mixture of the AlphaLisa coupled capture antibody and the biotinylated detection antibody was added and incubated for 3 hours at room temperature while softly shaking the assay plate. After a further addition of 20 μl of the Donor beads the assay plate was incubated for 30 min at room temperature and constant shaking without exposure to direct light. The assay plate was then read on a Paradigm AlphaLisa Reader using the build-in program with excitation at 680 nm and emission at […].
The measured signals were then used to calculate IC50 values for inhibition of Aβ42 secretion by nonlinear regression fit analysis using XLfit 5.3 software (IDBS).

| Compound | pEC50 |
| --- | --- |
| Cc1cc(N2C[C@H]3CC[C@@H](C2)[C@@H]3Nc2nc3n(n2)CCCC[C@H]3c2ccc(C(F)(F)F)cc2)ncn1 [Example 4, (9S)—N-[(1R,5S)-3-(6-methylpyrimidin-4-yl)-3-azabicyclo[3.2.1]octan-8-yl]-9-[4-(trifluoromethyl)phenyl]-6,7,8,9-tetrahydro-5H-[1,2,4]triazolo[1,5-a]azepin-2-amine] | 7.43 |
| Cc1cc(N2C[C@H]3CC[C@@H](C2)[C@@H]3Nc2nc3n(n2)CCCC[C@H]3c2ccc(Cl)cc2)ncn1 [Example 8, (9S)-9-(4-chlorophenyl)-N-[(1R,5S,8S)-3-(6-methylpyrimidin-4-yl)-3-azabicyclo[3.2.1]octan-8-yl]-6,7,8,9-tetrahydro-5H-[1,2,4]triazolo[1,5-a]azepin-2-amine] | 7.50 |
| Fc1ccc([C@@H]2CCCCn3nc(N[C@@H]4[C@@H]5CC[C@H]4CN(c4cc(Cl)ncn4)C5)nc32)c(F)c1F [Example 18, (9S)—N-[(1R,5S,8S)-3-(6-chloropyrimidin-4-yl)-3-azabicyclo[3.2.1]octan-8-yl]-9-(2,3,4-trifluorophenyl)-6,7,8,9-tetrahydro-5H-[1,2,4]triazolo[1,5-a]azepin-2-amine] | 7.91 |
| Cc1cc(N2C[C@H]3CC[C@@H](C2)[C@@H]3Nc2nc3n(n2)CCCCC3c2ccc(C(F)(F)F)cc2)ncn1 (mixture of isomers) [Example 3, N-[(1R,5S,8S)-3-(6-methylpyrimidin-4-yl)-3-azabicyclo[3.2.1]octan-8-yl]-9-[4-(trifluoromethyl)phenyl]-6,7,8,9-tetrahydro-5H-[1,2,4]triazolo[1,5-a]azepin-2-amine] | 7.69 |
| Fc1ccc(C2CCCCn3nc(N[C@@H]4[C@@H]5CC[C@H]4CN(c4ccnc(C(F)(F)F)c4)C5)nc32)c(F)c1F (stereo partly drawn) [Example 1, N-[(1R,5S,8S)-3-[2-(trifluoromethyl)-4-pyridyl]-3-azabicyclo[3.2.1]octan-8-yl]-9-(2,3,4-trifluorophenyl)-6,7,8,9-tetrahydro-5H-[1,2,4]triazolo[1,5-a]azepin-2-amine] | 7.46 |
| FC(F)(F)c1ccc(C2CCCCn3nc(N[C@@H]4[C@@H]5CC[C@H]4CN(c4ccnc(C(F)(F)F)c4)C5)nc32)cc1 (stereo partly drawn) [Example 2, 9-[4-(trifluoromethyl)phenyl]-N-[(1R,5S,8S)-3-[2-(trifluoromethyl)-4-pyridyl]-3-azabicyclo[3.2.1]octan-8-yl]-6,7,8,9-tetrahydro-5H-[1,2,4]triazolo[1,5-a]azepin-2-amine] | 7.32 |
| Cc1cc(N2C[C@H]3CC[C@@H](C2)[C@@H]3Nc2nc3n(n2)CCCC[C@@H]3c2ccc(F)c(F)c2F)ncn1 [Example 16, (9R)—N-[(1R,5S,8S)-3-(6-methylpyrimidin-4-yl)-3-azabicyclo[3.2.1]octan-8-yl]-9-(2,3,4-trifluorophenyl)-6,7,8,9-tetrahydro-5H-[1,2,4]triazolo[1,5-a]azepin-2-amine] | 8.15 |
| Cc1cc(N2C[C@H]3CC[C@@H](C2)[C@@H]3Nc2nc3n(n2)CCCCC3c2ccc(F)c(F)c2F)ncn1 (mixture of isomers) [Example 14, N-[(1R,5S,8S)-3-(6-methylpyrimidin-4-yl)-3-azabicyclo[3.2.1]octan-8-yl]-9-(2,3,4-trifluorophenyl)-6,7,8,9-tetrahydro-5H-[1,2,4]triazolo[1,5-a]azepin-2-amine] | 7.90 |
| Cc1cc(N2C[C@H]3CC[C@@H](C2)[C@@H]3Nc2nc3n(n2)CCCC[C@@H]3c2cccc(C(F)(F)F)c2)ncn1 [Example 13, (9R)—N-[(1R,5S,8S)-3-(6-methylpyrimidin-4-yl)-3-azabicyclo[3.2.1]octan-8-yl]-9-[3-(trifluoromethyl)phenyl]-6,7,8,9-tetrahydro-5H-[1,2,4]triazolo[1,5-a]azepin-2-amine] | 7.82 |
| COc1cc(N2C[C@H]3CC[C@@H](C2)[C@@H]3Nc2nc3n(n2)CCCCC3c2ccc(F)c(F)c2F)ccn1 (stereo partly drawn) [Example 20, N-[(1R,5S,8S)-3-(2-methoxy-4-pyridyl)-3-azabicyclo[3.2.1]octan-8-yl]-9-(2,3,4-trifluorophenyl)-6,7,8,9-tetrahydro-5H-[1,2,4]triazolo[1,5-a]azepin-2-amine] | 8.07 |
| Cc1cc(N2C[C@H]3CC[C@@H](C2)[C@@H]3Nc2nc3n(n2)CCCCC3c2ccc(Cl)cc2)ncn1 (mixture of isomers) [Example 7, 9-(4-chlorophenyl)-N-[(1R,5S,8S)-3-(6-methylpyrimidin-4-yl)-3-azabicyclo[3.2.1]octan-8-yl]-6,7,8,9-tetrahydro-5H-[1,2,4]triazolo[1,5-a]azepin-2-amine] | 7.63 |
| Cc1cc(N2C[C@H]3CC[C@@H](C2)[C@@H]3Nc2nc3n(n2)CCCCC3c2cccc(C(F)(F)F)c2)ncn1 (mixture of isomers) [Example 11, N-[(1R,5S,8S)-3-(6-methylpyrimidin-4-yl)-3-azabicyclo[3.2.1]octan-8-yl]-9-[3-(trifluoromethyl)phenyl]-6,7,8,9-tetrahydro-5H-[1,2,4]triazolo[1,5-a]azepin-2-amine] | 7.55 |
| FC(F)(F)c1cc(N2C[C@H]3CC[C@@H](C2)[C@@H]3Nc2nc3n(n2)CCCCC3c2ccc(Cl)cc2)ccn1 (stereo partly drawn) [Example 6, 9-(4-chlorophenyl)-N-[(1R,5S,8S)-3-[2-(trifluoromethyl)-4-pyridyl]-3-azabicyclo[3.2.1]octan-8-yl]-6,7,8,9-tetrahydro-5H-[1,2,4]triazolo[1,5-a]azepin-2-amine] | 7.30 |
| Fc1ccc([C@H]2CCCCn3nc(N[C@@H]4[C@@H]5CC[C@H]4CN(c4cc(Cl)ncn4)C5)nc32)c(F)c1F [Example 19, (9R)—N-[(1R,5S,8S)-3-(6-chloropyrimidin-4-yl)-3-azabicyclo[3.2.1]octan-8-yl]-9-(2,3,4-trifluorophenyl)-6,7,8,9-tetrahydro-5H-[1,2,4]triazolo[1,5-a]azepin-2-amine] | 7.90 |
| Cc1cc(N2C[C@H]3CC[C@@H](C2)C3Nc2nc3n(n2)CCCC[C@@H]3c2ccc(C(F)(F)F)cc2)ncn1 (stereo partly drawn) [Example 5, (9R)—N-[(1R,5S)-3-(6-methylpyrimidin-4-yl)-3-azabicyclo[3.2.1]octan-8-yl]-9-[4-(trifluoromethyl)phenyl]-6,7,8,9-tetrahydro-5H-[1,2,4]triazolo[1,5-a]azepin-2-amine] | 7.94 |
| COc1cc(N2C[C@H]3CC[C@@H](C2)[C@@H]3Nc2nc3n(n2)CCCCC3c2ccc(F)c(F)c2F)ncn1 (stereo partly drawn) [Example 21, N-[(1R,5S,8S)-3-(6-methoxypyrimidin-4-yl)-3-azabicyclo[3.2.1]octan-8-yl]-9-(2,3,4-trifluorophenyl)-6,7,8,9-tetrahydro-5H-[1,2,4]triazolo[1,5-a]azepin-2-amine] | 7.27 |
| Cc1cc(N2C[C@H]3CC[C@@H](C2)[C@@H]3Nc2nc3n(n2)CCCC[C@H]3c2ccc(F)c(F)c2F)ncn1 [Example 15, (9S)—N-[(1R,5S,8S)-3-(6-methylpyrimidin-4-yl)-3-azabicyclo[3.2.1]octan-8-yl]-9-(2,3,4-trifluorophenyl)-6,7,8,9-tetrahydro-5H-[1,2,4]triazolo[1,5-a]azepin-2-amine] | 8.08 |
| Cc1ncnc(N2C[C@H]3CC[C@@H](C2)[C@@H]3Nc2nc3n(n2)CCCCC3c2ccc(F)c(F)c2F)c1F (stereo partly drawn) [Example 22, N-[(1R,5S,8S)-3-(5-fluoro-6-methyl-pyrimidin-4-yl)-3-azabicyclo[3.2.1]octan-8-yl]-9-(2,3,4-trifluorophenyl)-6,7,8,9-tetrahydro-5H-[1,2,4]triazolo[1,5-a]azepin-2-amine] | 7.52 |
| Cc1cc(N2C[C@H]3CC[C@@H](C2)[C@@H]3Nc2nc3n(n2)CCCC[C@H]3c2cccc(C(F)(F)F)c2)ncn1 [Example 12, (9S)—N-[(1R,5S,8S)-3-(6-methylpyrimidin-4-yl)-3-azabicyclo[3.2.1]octan-8-yl]-9-[3-(trifluoromethyl)phenyl]-6,7,8,9-tetrahydro-5H-[1,2,4]triazolo[1,5-a]azepin-2-amine] | 7.83 |
| Fc1ccc(C2CCCCn3nc(N[C@@H]4[C@@H]5CC[C@H]4CN(c4cc(Cl)ncn4)C5)nc32)c(F)c1F (mixture of isomers) [Example 17, N-[(1R,5S,8S)-3-(6-chloropyrimidin-4-yl)-3-azabicyclo[3.2.1]octan-8-yl]-9-(2,3,4-trifluorophenyl)-6,7,8,9-tetrahydro-5H-[1,2,4]triazolo[1,5-a]azepin-2-amine] | 7.75 |
| Cc1cc(N2C[C@H]3CC[C@@H](C2)[C@@H]3Nc2nc3n(n2)CCCC[C@@H]3c2ccc(Cl)cc2)ncn1 [Example 9, (9R)-9-(4-chlorophenyl)-N-[(1R,5S,8S)-3-(6-methylpyrimidin-4-yl)-3-azabicyclo[3.2.1]octan-8-yl]-6,7,8,9-tetrahydro-5H-[1,2,4]triazolo[1,5-a]azepin-2-amine] | 7.31 |
| FC(F)(F)c1cccc(C2CCCCn3nc(N[C@@H]4[C@@H]5CC[C@H]4CN(c4ccnc(C(F)(F)F)c4)C5)nc32)c1 (stereo partly drawn) [Example 10, 9-[3-(trifluoromethyl)phenyl]-N-[(1R,5S,8S)-3-[2-(trifluoromethyl)-4-pyridyl]-3-azabicyclo[3.2.1]octan-8-yl]-6,7,8,9-tetrahydro-5H-[1,2,4]triazolo[1,5-a]azepin-2-amine] | 7.47 |

From patent US10941147B2, “Bicyclic heteroaryl derivatives” (Hoffmann-La Roche Inc., priority 2016, dated 2021)
